Source: EP0515684A1, “INHIBITOR OF DENATURED LDL FORMATION” (Chugai Seiyaku Kabushiki Kaisha, priority 1990, dated 1991)

Legend:
rabbit or human LDL = assay: Electrophoretic mobility in agarose gel of LDL oxidised with Cu2+; type: biochemical; settings: 10 µM of Cu²⁺, 37°C approximately 24 hours, expressed by regarding the mobility of LDL as 1.00 (Control 1.61)
Method: (§1) The biological properties of the compounds as shown hereinafter were examined by the following methods. • (1) The amount of thiobarbituric acid reactive substances: 5 µM of Cu²⁺ was added to rabbit LDL, prepared by the method reported by Havel et al., followed by heating. Then the antioxidative effect of each compound was examined by using the thiobarbituric acid reactive substances (TBARS) thus formed as the guidance. […] 0.5 ml of an n-butanol solution containing 0.2 µM of MCLA and 10 mM of linoleic acid was introduced into a vial for luminescence analysis and the luminescence due to autoxidation was measured in a thermostat at 37°C. […] To the obtained plasma, were added EDTA-NaN₃ (a 5% solution of pH 7.4) and a benzamidine solution (60 mg/ml) respectively in amounts of 0.8 ml and 0.5 ml per 100 ml of the plasma. Then rabbit or human LDL (1.019 < d < 1.063) was prepared by ultracentrifugation in accordance with the method of Havel et al.*. After performing the ultracentifugation again, the LDL was washed and concentrated. Then it was dialyzed against a 150 mM NaCl - 2 mM Na₂HPO₄ solution at 4°C and KBr was removed. The protein content was determined by Lowry method** and then the LDL was subjected to the subsequent procedure. (Measurement of electrophoretic mobility in agarose gel) 10 µM of Cu²⁺ and a specimen were added to an LDL-containing solution (3.00 µg protein/ml). After incubating at 37°C for approximately 24 hours, a portion (1 µl) thereof was applied onto an agarose gel film (Universal Film, manufactured by Corning Co.) and then subjected to electrophoresis (Agarose Gel Electrophoresis System for Lipoprotein, manufactured by Corning Co.). Thus the mobility was measured by staining lipids with Fat Red 7B. […] After 3 days, peritoneal macrophages were collected from the mouse and incubated in an RPMI 1640 medium containing 10% of FBS. The macrophages were used in the • examination on the next day.

rabbit LDL = assay: Amount of thiobarbituric acid reactive substances (TBARS) formed on Cu2+ oxidation of LDL; type: biochemical; settings: 5 µM of Cu²⁺ added to rabbit LDL, followed by heating
Method: as §1

Compound | Mobility (rabbit or human LDL; Compound conc. 10 x 10⁻⁶ M) | Formed TBARS (%) (rabbit LDL; Compound conc. 10^-5 M, 10 µM) | Formed TBARS (%) (rabbit LDL; Compound conc. 10^-6 M, 1 µM) | Mobility (rabbit or human LDL; Compound conc. 100 x 10⁻⁶ M)
COc1cc(NCc2ccccc2)cc(OC)c1OC [Compound 1, N-benzyl-3,4,5-trimethoxyaniline] | 1.17 | 33 | 49 | –
COc1cc(NC2CCC3CCCCC3C2)cc(OC)c1OC (stereo not drawn) [Compound 110] | – | 7 | 16 | –
CCCCCCCCCCCCNc1cc(OC)c(OC)c(OC)c1 [Compound 113] | – | 29 | 66 | –
CCCCCCCCCCCCN(CCCCCCCCCCCC)c1cc(OC)c(OC)c(OC)c1 [Compound 114] | – | 93 | 94 | –
COc1cc(NCCC(C)CCCC(C)CCCC(C)CCCC(C)C)cc(OC)c1OC (stereo not drawn) [Compound 115] | – | 15 | 71 | –
COc1cc(NCC=C(C)C)cc(OC)c1OC [Compound 116] | – | 33 | 61 | –
COc1cc(N(CC=C(C)C)CC=C(C)C)cc(OC)c1OC [Compound 117] | – | 35 | 63 | –
COc1cc(NC/C=C(\C)CCC=C(C)C)cc(OC)c1OC [Compound 118] | 1.17 | 37 | 56 | –
CC(C)(C)c1cc(CNCc2ccccc2)cc(C(C)(C)C)c1O [Compound 185, N-benzyl-3,5-di-tert-butyl-4-hydroxybenzylamine] | 1.15 | – | – | –
CC(C)=CCC/C(C)=C/CCC(C)Nc1ccc(-c2cc(C(C)(C)C)c(O)c(C(C)(C)C)c2)cc1 (stereo not drawn) [Compound 188, 4-[4'-[(trans-1,5,9-trimethyl-4,8-decadienyl)amino]phenyl]2,6-di-tert-butylphenol] | 1.15 | – | – | –
O=C(Nc1ccc(C(=O)c2ccccc2)cc1)c1ccc(O)c(O)c1 [Compound 194] | 1.00 | – | – | –
O=C(c1ccc(O)c(O)c1)N1CCN(C(c2ccccc2)c2ccccc2)CC1 [Compound 197] | 1.00 | – | – | –
Oc1ccc(-c2onc3ccc(Cl)cc23)cc1O [Compound 205, 3-(3',4'-dihydroxyphenyl)-5-chlorobenzoiso-oxazole] | 1.00 | – | – | –
CC(C)=CCC/C(C)=C\CC/C(C)=C/Cn1cnc2c1C(=O)C(C)=C(C)C2=O [Compound 206, 5,6-dimethyl-1-[(2E,6Z)-3,7,11-trimethyldodeca-2,6,10-trienyl]-4,7-benzimidazoledione] | – | – | – | 1.00
